Patent US20250186627A1, “RADIOLABELED COMPOUNDS TARGETING THE PROSTATE-SPECIFIC MEMBRANE ANTIGEN” (PROVINCIAL HEALTH SERVICES AUTHORITY, priority 2022, published 2025)
*1 amine or outer side, *2 acyl side, *3 side chain or, on linkers, in order; H or OH if unused. Where a SMILES comes first, the peptide text is derived from it. [ ]: non-standard residue; d: D form. The star is where a group is joined. ξ: configuration not given here. ξLys(Nα-CO-ξAad) = O=C(O)CCCC(NC(=O)NC(CCCCN*)C(=O)O)C(=O)O; Butanoyl(4-(4-NO2Ph)) = O=C(CCCc1ccc([N+](=O)[O-])cc1)*; DOTA = O=C(O)CN1CCN(CC(=O)O)CCN(CC(=O)*)CCN(CC(=O)O)CC1; Butanoyl(4-(4-MeO-phenyl)) = COc1ccc(CCCC(=O)*)cc1; ξAla(9-anthryl) = NC(Cc1c2ccccc2cc2ccccc12)C(=O)O; X2 = O=C(NC(CCCCN*)C(=O)O)NC(CC(F)C(=O)O)C(=O)O; X1 = O=C(C1CCC(CN[*:1])CC1)[*:2]; ξK = NCCCCC(N)C(=O)O

System: NRG-mice bearing LNCaP tumors
Test: Biodistribution (and PET/SPECT imaging) in NRG-mice bearing LNCaP tumors
Format: in vivo
Settings: for Biodistribution: Adrenal gland / Biodistribution: Blood / Biodistribution: Bone / Biodistribution: Brain / Biodistribution: Fat / Biodistribution: Heart / Biodistribution: Intestine / Biodistribution: LNCaP tumor / Biodistribution: Liver / Biodistribution: Lungs / Biodistribution: Muscle / Biodistribution: Pancreas / Biodistribution: Salivary gland / Biodistribution: Seminal gland / Biodistribution: Spleen / Biodistribution: Stomach / Biodistribution: Testes / Biodistribution: Thyroid / Biodistribution: Urine / Biodistribution: kidney: Avg
Protocol: LNCaP cell line was obtained from ATCC (LNCaP clone FGC, CRL-1740). It was established from a metastatic site of left supraclavicular lymph node of human prostatic adenocarcinoma. Cells were cultured in PRMI 1640 medium supplemented with 10% FBS, penicillin (100 U/mL) and streptomycin (100 μg/mL) at 37° C. in a humidified incubator containing 5% CO2. Cells grown to 80-90% confluence were then washed with sterile phosphate-buffered saline (1×PBS pH 7.4) and trypsinization. The collected cells number was counted with a Hausser Scientific (Horsham, PA) Hemacytometer. Approximately 10 million LNCaP cells were inoculated into the left dorsal flank of immunocomprised NRG mice. The tumours were allowed to grow for 4-6 weeks and used for imaging and biodistribution studies when a volume of 200-600 mm^3 was reached.
PET imaging experiments were conducted using Siemens Inveon micro PET/CT scanner. SPECT imaging experiments were conducted using an MILabs micro SPECT/CT scanner. Each tumor bearing mouse was injected 4-6 MBq of ^68Ga or 18.5 MBq of ^177Lu labeled tracer through the tail vein under anesthesia (2% isoflurane in oxygen). The mice were allowed to recover and roam freely in their cage. At pre-defined time point, the mice were sedated again with 2% isoflurane in oxygen inhalation and positioned in the scanner. A 10-min CT scan was conducted first for localization and attenuation correction after segmentation for reconstructing the PET or SPECT images. Then, a 10-min static PET imaging or a one hour (30 min×2 frames) of static SPECT scan was performed to determined uptake in tumor and other organs. The mice were kept warm by a heating pad during acquisition.
For biodistribution studies, the mice were injected with the radiotracer as described above. The mice were anesthetized with 2% isoflurane inhalation, and euthanized by CO2 inhalation. Blood was withdrawn immediately from the heart, and the organs/tissues of interest were collected. The collected organs/tissues were weighed and counted using a Perkin Elmer (Waltham, MA) Wizard2 2480 gamma counter. The uptake in each organ/tissue was normalized to the injected dose (radioactivity) using a standard curve, and expressed as the percentage of the injected dose per gram of tissue (% ID/g).

Structure (SMILES): COc1ccc(CCCC(=O)NCC(=O)NC(CCCCNC(=O)CN2CCN(CC(=O)[O-])CCN(CC(=O)[O-])CCN(CC(=O)[O-])CC2)C(=O)NCC(=O)NCC2CCC(C(=O)NC(Cc3c4ccccc4cc4ccccc34)C(=O)NCCCCC(NC(=O)NC(CCCC(=O)O)C(=O)O)C(=O)O)CC2)cc1.[68Ga+3] (stereo not shown) [^68Ga-CCZ02009] ({Butanoyl(4-(4-MeO-phenyl))}-G[ξK](DOTA)G[X1][ξAla(9-anthryl)]-{ξLys(Nα-CO-ξAad)})
- Blood radioactivity (1 and 3 h p.i.): high and sustained blood radioactivity
- Biodistribution: Adrenal gland (1 h p.i.): 3.82 % ID/g
- Biodistribution: Blood (1 h p.i.): 19.52 % ID/g
- Biodistribution: Bone (1 h p.i.): 0.77 % ID/g
- Biodistribution: Brain (1 h p.i.): 0.30 % ID/g
- Biodistribution: Fat (1 h p.i.): 1.35 % ID/g
- Biodistribution: Heart (1 h p.i.): 4.02 % ID/g
- Biodistribution: Intestine (1 h p.i.): 1.72 % ID/g
- Biodistribution: LNCaP tumor (1 h p.i.): 7.11 % ID/g
- Biodistribution: Liver (1 h p.i.): 3.04 % ID/g
- Biodistribution: Lungs (1 h p.i.): 6.51 % ID/g
- Biodistribution: Muscle (1 h p.i.): 1.15 % ID/g
- Biodistribution: Pancreas (1 h p.i.): 1.56 % ID/g
- Biodistribution: Salivary gland (1 h p.i.): 2.74 % ID/g
- Biodistribution: Seminal gland (1 h p.i.): 0.88 % ID/g
- Biodistribution: Spleen (1 h p.i.): 1.56 % ID/g
- Biodistribution: Stomach (1 h p.i.): 0.71 % ID/g
- Biodistribution: Testes (1 h p.i.): 2.33 % ID/g
- Biodistribution: Thyroid (1 h p.i.): 2.92 % ID/g
- Biodistribution: Urine (1 h p.i.): 63.67 % ID/g
- Biodistribution: kidney (1 h p.i.): 7.57 % ID/g
- Biodistribution: Adrenal gland (3 h p.i.): 4.34 % ID/g
- Biodistribution: Blood (3 h p.i.): 19.18 % ID/g
- Biodistribution: Bone (3 h p.i.): 1.62 % ID/g
- Biodistribution: Brain (3 h p.i.): 0.32 % ID/g
- Biodistribution: Fat (3 h p.i.): 1.52 % ID/g
- Biodistribution: Heart (3 h p.i.): 3.76 % ID/g
- Biodistribution: Intestine (3 h p.i.): 1.53 % ID/g
- Biodistribution: LNCaP tumor (3 h p.i.): 17.69 % ID/g
- Biodistribution: Liver (3 h p.i.): 3.35 % ID/g
- Biodistribution: Lungs (3 h p.i.): 7.15 % ID/g
- Biodistribution: Muscle (3 h p.i.): 1.34 % ID/g
- Biodistribution: Pancreas (3 h p.i.): 1.41 % ID/g
- Biodistribution: Salivary gland (3 h p.i.): 3.82 % ID/g
- Biodistribution: Seminal gland (3 h p.i.): 1.73 % ID/g
- Biodistribution: Spleen (3 h p.i.): 2.17 % ID/g
- Biodistribution: Stomach (3 h p.i.): 0.73 % ID/g
- Biodistribution: Testes (3 h p.i.): 2.28 % ID/g
- Biodistribution: Thyroid (3 h p.i.): 3.59 % ID/g
- Biodistribution: Urine (3 h p.i.): 56.09 % ID/g
- Biodistribution: kidney (3 h p.i.): 9.28 % ID/g

Structure (SMILES): COc1ccc(CCCC(=O)NCC(=O)NC(CCCCNC(=O)CN2CCN(CC(=O)[O-])CCN(CC(=O)[O-])CCN(CC(=O)[O-])CC2)CC(=O)NCC2CCC(C(=O)NC(Cc3c4ccccc4cc4ccccc34)C(=O)NCCCCC(NC(=O)NC(CCCC(=O)O)C(=O)O)C(=O)O)CC2)cc1.[68Ga+3] (stereo not shown) [^68Ga-CCZ02015]
- Biodistribution: Adrenal gland (1 h p.i.): 3.28 % ID/g
- Biodistribution: Blood (1 h p.i.): 15.78 % ID/g
- Biodistribution: Bone (1 h p.i.): 0.92 % ID/g
- Biodistribution: Brain (1 h p.i.): 0.25 % ID/g
- Biodistribution: Fat (1 h p.i.): 1.52 % ID/g
- Biodistribution: Heart (1 h p.i.): 3.19 % ID/g
- Biodistribution: Intestine (1 h p.i.): 1.46 % ID/g
- Biodistribution: LNCaP tumor (1 h p.i.): 11.16 % ID/g
- Biodistribution: Liver (1 h p.i.): 2.98 % ID/g
- Biodistribution: Lungs (1 h p.i.): 5.90 % ID/g
- Biodistribution: Muscle (1 h p.i.): 1.07 % ID/g
- Biodistribution: Pancreas (1 h p.i.): 1.34 % ID/g
- Biodistribution: Salivary gland (1 h p.i.): 2.19 % ID/g
- Biodistribution: Seminal gland (1 h p.i.): 0.72 % ID/g
- Biodistribution: Spleen (1 h p.i.): 1.28 % ID/g
- Biodistribution: Stomach (1 h p.i.): 0.46 % ID/g
- Biodistribution: Testes (1 h p.i.): 1.77 % ID/g
- Biodistribution: Thyroid (1 h p.i.): 2.54 % ID/g
- Biodistribution: Urine (1 h p.i.): 177.03 % ID/g
- Biodistribution: kidney (1 h p.i.): 11.93 % ID/g
- Biodistribution: Adrenal gland (3 h p.i.): 3.36 % ID/g
- Biodistribution: Blood (3 h p.i.): 10.81 % ID/g
- Biodistribution: Bone (3 h p.i.): 1.20 % ID/g
- Biodistribution: Brain (3 h p.i.): 0.19 % ID/g
- Biodistribution: Fat (3 h p.i.): 1.04 % ID/g
- Biodistribution: Heart (3 h p.i.): 2.55 % ID/g
- Biodistribution: Intestine (3 h p.i.): 1.17 % ID/g
- Biodistribution: LNCaP tumor (3 h p.i.): 22.60 % ID/g
- Biodistribution: Liver (3 h p.i.): 2.13 % ID/g
- Biodistribution: Lungs (3 h p.i.): 4.65 % ID/g
- Biodistribution: Muscle (3 h p.i.): 1.13 % ID/g
- Biodistribution: Pancreas (3 h p.i.): 1.10 % ID/g
- Biodistribution: Salivary gland (3 h p.i.): 2.18 % ID/g
- Biodistribution: Seminal gland (3 h p.i.): 1.63 % ID/g
- Biodistribution: Spleen (3 h p.i.): 1.01 % ID/g
- Biodistribution: Stomach (3 h p.i.): 0.84 % ID/g
- Biodistribution: Testes (3 h p.i.): 2.07 % ID/g
- Biodistribution: Thyroid (3 h p.i.): 2.09 % ID/g
- Biodistribution: Urine (3 h p.i.): 84.38 % ID/g
- Biodistribution: kidney (3 h p.i.): 10.94 % ID/g

Structure (SMILES): O=C([O-])CN1CCN(CC(=O)[O-])CCN(CC(=O)NCCCCC(NC(=O)CNC(=O)CCCc2ccc([N+](=O)[O-])cc2)C(=O)NCC(=O)NCC2CCC(C(=O)NC(Cc3c4ccccc4cc4ccccc34)C(=O)NCCCCC(NC(=O)NC(CC(F)C(=O)O)C(=O)O)C(=O)O)CC2)CCN(CC(=O)[O-])CC1.[68Ga+3] (stereo not shown) [^68Ga-CCZ02025] ({Butanoyl(4-(4-NO2Ph))}-G[ξK](DOTA)G[X1][ξAla(9-anthryl)]-X2)
- Biodistribution: Adrenal gland (1 h p.i.): 5.96 % ID/g
- Biodistribution: Blood (1 h p.i.): 19.40 % ID/g
- Biodistribution: Bone (1 h p.i.): 1.01 % ID/g
- Biodistribution: Brain (1 h p.i.): 0.30 % ID/g
- Biodistribution: Fat (1 h p.i.): 2.74 % ID/g
- Biodistribution: Heart (1 h p.i.): 4.13 % ID/g
- Biodistribution: Intestine (1 h p.i.): 1.93 % ID/g
- Biodistribution: LNCaP tumor (1 h p.i.): 9.19 % ID/g
- Biodistribution: Liver (1 h p.i.): 4.07 % ID/g
- Biodistribution: Lungs (1 h p.i.): 8.79 % ID/g
- Biodistribution: Muscle (1 h p.i.): 1.48 % ID/g
- Biodistribution: Pancreas (1 h p.i.): 1.89 % ID/g
- Biodistribution: Salivary gland (1 h p.i.): 3.24 % ID/g
- Biodistribution: Seminal gland (1 h p.i.): 2.55 % ID/g
- Biodistribution: Spleen (1 h p.i.): 1.90 % ID/g
- Biodistribution: Stomach (1 h p.i.): 0.59 % ID/g
- Biodistribution: Testes (1 h p.i.): 2.65 % ID/g
- Biodistribution: Thyroid (1 h p.i.): 4.11 % ID/g
- Biodistribution: Urine (1 h p.i.): 104.40 % ID/g
- Biodistribution: kidney (1 h p.i.): 14.01 % ID/g
- Biodistribution: Adrenal gland (3 h p.i.): 4.26 % ID/g
- Biodistribution: Blood (3 h p.i.): 13.83 % ID/g
- Biodistribution: Bone (3 h p.i.): 1.27 % ID/g
- Biodistribution: Brain (3 h p.i.): 0.22 % ID/g
- Biodistribution: Fat (3 h p.i.): 1.79 % ID/g
- Biodistribution: Heart (3 h p.i.): 2.86 % ID/g
- Biodistribution: Intestine (3 h p.i.): 1.12 % ID/g
- Biodistribution: LNCaP tumor (3 h p.i.): 18.79 % ID/g
- Biodistribution: Liver (3 h p.i.): 3.21 % ID/g
- Biodistribution: Lungs (3 h p.i.): 5.21 % ID/g
- Biodistribution: Muscle (3 h p.i.): 0.95 % ID/g
- Biodistribution: Pancreas (3 h p.i.): 1.13 % ID/g
- Biodistribution: Salivary gland (3 h p.i.): 2.47 % ID/g
- Biodistribution: Seminal gland (3 h p.i.): 1.83 % ID/g
- Biodistribution: Spleen (3 h p.i.): 1.17 % ID/g
- Biodistribution: Stomach (3 h p.i.): 0.57 % ID/g
- Biodistribution: Testes (3 h p.i.): 2.80 % ID/g
- Biodistribution: Thyroid (3 h p.i.): 2.41 % ID/g
- Biodistribution: Urine (3 h p.i.): 101.55 % ID/g
- Biodistribution: kidney (3 h p.i.): 9.90 % ID/g
